PubChem BioAssay (NCI)
Values joined by “and” are separate entries in the source; they are usually repeats but may differ in a detail not shown here. Identical values can stand only once.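 Tested at 5 concentrations; 48 h exposure; 96-well plates; endpoints linearly interpolated, else capped at highest concentration. Here, GI50 denotes the concentration required for 50% inhibition of growth. TGI: total growth inhibition.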

Experiments:
Assay in all cases: NCI anticancer screen, dose series, 48 h
HT29 colon = system: HT29 colon
HOP-92 NSCLC = system: HOP-92 NSCLC
NCI/ADR-RES ovarian = system: NCI/ADR-RES ovarian
SF-295 CNS = system: SF-295 CNS
OVCAR-3 ovarian = system: OVCAR-3 ovarian
SF-539 CNS = system: SF-539 CNS
T-47D breast = system: T-47D breast
SK-MEL-28 melanoma = system: SK-MEL-28 melanoma
NCI-H23 lung = system: NCI-H23 lung
M14 melanoma = system: M14 melanoma

| SMILES | GI50 (HT29 colon) | TGI (HT29 colon) | GI50 (HOP-92 NSCLC) | TGI (HOP-92 NSCLC) | GI50 (NCI/ADR-RES ovarian) | TGI (NCI/ADR-RES ovarian) | GI50 (SF-295 CNS) | TGI (SF-295 CNS) | GI50 (OVCAR-3 ovarian) | TGI (OVCAR-3 ovarian) | GI50 (SF-539 CNS) | TGI (SF-539 CNS) | GI50 (T-47D breast) | TGI (T-47D breast) | GI50 (SK-MEL-28 melanoma) | TGI (SK-MEL-28 melanoma) | GI50 (NCI-H23 lung) | TGI (NCI-H23 lung) | GI50 (M14 melanoma) | TGI (M14 melanoma) |
| --- | --- | --- | --- | --- | --- | --- | --- | --- | --- | --- | --- | --- | --- | --- | --- | --- | --- | --- | --- | --- |
| O=C(/C=C\c1cccc([N+](=O)[O-])c1)c1ccccc1 | 2.77 µM | > 100 µM | 2.04 µM | 5.12 µM | 5.48 µM | 30.1 µM | 7.68 µM | 29.5 µM | 1.76 µM | 3.6 µM | 3.4 µM | 9.81 µM | 2.33 µM | 6.1 µM | 2.17 µM | 4.6 µM | 6.16 µM | 21.3 µM | 3.74 µM | 14.2 µM |
| Oc1c(Cl)cc(C(c2cc(Cl)c(O)c(Cl)c2)C(c2cc(Cl)c(O)c(Cl)c2)c2cc(Cl)c(O)c(Cl)c2)cc1Cl | 4.36 µM | 16.3 µM | 3.44 µM | 13.6 µM | 10.7 µM | 38 µM | 3.51 µM | 16.3 µM | 3.12 µM | 11.9 µM | 5.33 µM | 20.4 µM | 1.74 µM | 12.5 µM | 5.27 µM | 54.3 µM | 3.68 µM | 16.3 µM | 4.25 µM | 18.8 µM |
| CN(C)c1cc2c(Nc3ccc4nc(Cc5ccccc5)[nH]c4c3)ncnc2cn1 | 11.9 µM | > 23 µM | > 25 µM | > 25 µM | > 25 µM | > 25 µM | > 12.7 µM | > 18.9 µM | > 18.3 µM | > 25 µM | 14.4 µM | > 25 µM | > 16.4 µM | > 25 µM | > 12.4 µM | > 20 µM | > 23.9 µM | > 25 µM | > 25 µM | > 25 µM |
| O=C(c1ccc(F)c(F)c1Nc1ccc(I)cc1F)N1CC(O)([C@H]2CCCCN2)C1 | 0.0894 µM | 10.9 µM | 0.406 µM | 2.77 µM | 8.74 µM | 23 µM | 14.5 µM | 28.9 µM | 12.1 µM | 25.2 µM | 10.2 µM | 22.8 µM | 11.6 µM | 26 µM | 0.0953 µM | 3.45 µM | 1.09 µM | 13.1 µM | 0.087 µM | 2.52 µM |
| O=C1C(CN(Cc2ccccc2)Cc2ccccc2)CCCC1CN(Cc1ccccc1)Cc1ccccc1 (stereo unspecified) | 25.7 µM and 59.3 µM | 47.1 µM and > 100 µM |  | > 52.1 µM and 82.5 µM |  | > 100 µM |  | > 100 µM | 29.6 µM and > 100 µM | 46.8 µM and > 100 µM | 17.2 µM and 50.5 µM | 33.1 µM and > 100 µM |  | > 100 µM | 21 µM and > 100 µM | 38.8 µM and > 100 µM | 32.2 µM and > 100 µM | 50 µM and > 100 µM | 17.2 µM and 71.7 µM | 31.1 µM and > 100 µM |
| COc1ccc(Nc2nc(NCc3ccccc3)c3ccccc3n2)cc1 | 3.48 µM | 11.1 µM | 2.59 µM | 12.6 µM | 4.14 µM | 23.1 µM | 4.78 µM | 23.4 µM | 2.35 µM | 5.73 µM | 9.52 µM | 23.9 µM | 1.74 µM | 3.4 µM | 2.03 µM | 4.1 µM | 3.02 µM | 13.7 µM | 2.3 µM | 5.73 µM |
| CCNC(=O)Nc1ccc(-c2nc3c(c(N4CCOC[C@@H]4C)n2)CCN(C2COC2)C3)cc1 | 0.587 µM and 0.409 µM | > 100 µM | 0.043 µM and 0.0307 µM | 0.681 µM and 0.493 µM | 2.87 µM and 1.78 µM | > 100 µM | 0.158 µM and 0.166 µM | 1.43 µM and 1.84 µM | 0.355 µM and 0.229 µM | > 69.5 µM | 0.247 µM and 0.336 µM | 1.85 µM and 3.53 µM | 0.0498 µM and 0.0316 µM | 0.591 µM and 0.381 µM | 0.199 µM and 0.157 µM | 5.39 µM and 2.24 µM | 0.69 µM and 0.512 µM | > 100 µM | 0.418 µM and 0.323 µM | > 100 µM |
| O=C(O)c1ccc([N+](=O)[O-])c(P(=O)(O)O)c1 |  | > 100 µM |  | > 100 µM |  | > 100 µM |  | > 100 µM |  | > 100 µM |  | > 100 µM |  | > 100 µM |  | > 100 µM |  | > 100 µM |  | > 100 µM |
| O=S(=O)(c1ccc2c(c1)C(=NO)c1cc(S(=O)(=O)N3CCCCC3)ccc1-2)N1CCCCC1 | 0.856 µM and 0.194 µM | > 1 µM and 0.4 µM | > 1 µM and 0.22 µM | > 1 µM and 0.524 µM | > 1 µM and 0.196 µM | > 1 µM and 0.404 µM | 0.188 µM and 0.141 µM | 0.352 µM and 0.283 µM | 0.87 µM and 0.177 µM | > 1 µM and 0.321 µM | 0.227 µM and 0.17 µM | 0.569 µM and 0.312 µM | 0.186 µM and 0.18 µM | 0.423 µM and 0.384 µM | 0.346 µM and 0.177 µM | > 1 µM and 0.326 µM | > 1 µM and 0.162 µM | > 1 µM and 0.314 µM | 0.182 µM and 0.187 µM | 0.33 µM and 0.349 µM |
| COc1ccc(C2=C(Br)C(=O)OC2)cc1Cl | 48.4 µM | > 100 µM | 45.2 µM | > 100 µM | 29.4 µM | > 79.2 µM | 34 µM | 98.4 µM | 45.7 µM | > 89.8 µM | 15.2 µM | 39.8 µM | 1.93 µM | 35.5 µM | 30.9 µM | > 93.1 µM | 29.5 µM | > 100 µM | > 53 µM | > 100 µM |
| NC(=O)Cc1ccccc1Oc1nccc(-c2c(-c3ccc(F)cc3)ncn2C2CCNCC2)n1 | > 25 µM | > 25 µM | > 25 µM | > 25 µM | > 25 µM | > 25 µM | > 25 µM | > 25 µM | > 25 µM | > 25 µM | > 25 µM | > 25 µM | > 25 µM | > 25 µM | > 25 µM | > 25 µM | > 25 µM | > 25 µM | > 25 µM | > 25 µM |
| COc1cc(-c2nn(C)nc2-c2cc3ccccc3s2)cc(OC)c1OC | 0.0558 µM | 0.393 µM | 0.0806 µM | 78.7 µM | 0.103 µM | > 100 µM | 0.036 µM | 15.3 µM | 0.0354 µM | 0.77 µM | 0.149 µM | 0.903 µM | > 100 µM | > 100 µM | 13 µM | > 100 µM | 0.392 µM | > 100 µM | 0.0769 µM | > 100 µM |
| C=CC[Se]C(=O)c1ccccc1OC(C)=O | 2.65 µM | > 100 µM | 2.28 µM | 6.12 µM | 1.6 µM | 4.4 µM | 0.332 µM | 1.32 µM | 1.95 µM | 3.51 µM | 1.47 µM | 2.8 µM | 2.45 µM | 6.06 µM | 1.85 µM | 3.53 µM | 1.95 µM | 4.57 µM | 1.58 µM | 3.06 µM |
| COC(=O)C1=C(C(=O)Nc2cccnc2)C2OC1(C(Cc1ccccc1)Oc1ccccc1)C1OC21 (stereo unspecified) | 2.73 µM | 6.97 µM | 1.46 µM | 3 µM | 18.8 µM | 56.5 µM | 14.6 µM | 28.6 µM | 1.78 µM | 3.2 µM | 7.04 µM | 19.8 µM | 2.02 µM | 4.86 µM | 1.83 µM | 3.48 µM | 12.3 µM | 29.1 µM | 2.62 µM | 7.45 µM |
| CC(C)[C@@H]1NC(=O)[C@]2(C)CSC(=N2)c2csc(n2)CNC(=O)C[C@@H](/C=C/CCS)OC1=O | 0.183 µM | > 100 µM | 0.137 µM | 0.677 µM | 2.67 µM | > 100 µM | 0.0358 µM | 0.51 µM | 0.359 µM | 4.12 µM | 0.0543 µM | > 100 µM | 0.491 µM | 7.5 µM | 0.0564 µM | 7.01 µM | 0.219 µM | > 30.6 µM | 0.0835 µM | 52.7 µM |
| CCCCCCCCCCCCCCCCCC(=O)[O][Sn]([CH2]CCC)([CH2]CCC)[CH2]CCC | 0.113 µM | 0.311 µM | 0.0908 µM | 0.273 µM | 0.177 µM | 0.438 µM | 0.162 µM | 0.435 µM | 0.126 µM | 0.254 µM | 0.181 µM | 0.377 µM | 0.124 µM | 0.293 µM | 0.159 µM | 0.31 µM | 0.127 µM | 0.287 µM | 0.169 µM | 0.32 µM |
| O=C1OCC2=C1C(c1cccc([N+](=O)[O-])c1)c1cc3c(cc1N2CCO)CCC3 (stereo unspecified) | 0.176 µM | 21.6 µM | 2.66 µM | > 50 µM | 0.146 µM | > 11.3 µM | 0.0789 µM | 16.4 µM | 0.0961 µM | 0.518 µM | 0.11 µM | 0.38 µM | 0.355 µM | > 50 µM | 1.3 µM | > 39.9 µM | 0.335 µM | > 50 µM | 0.112 µM | 17.2 µM |
| COc1ccccc1/C=C1\CCC(CN(C)C)C1=O (stereo unspecified) |  | 16.1 µM |  | 15.9 µM |  | 90.3 µM |  | 29.7 µM |  | 18.6 µM |  | 27.2 µM |  | 28.8 µM |  | 12.2 µM |  | 25.1 µM |  | 11.1 µM |
| Nc1cccc(-c2nc3sccn3c2-c2ccnc(NCCCNS(=O)(=O)c3ccc(C(F)(F)F)cc3)n2)c1 | 2.85 µM | 13.7 µM | 11.4 µM | 83.5 µM | 3.36 µM | 56.9 µM | 3.08 µM | 10.1 µM | 3.87 µM | 23.4 µM | 6.66 µM | 29.6 µM | 1.37 µM | 5.18 µM | 5.07 µM | 26.7 µM | 5.07 µM | 40.9 µM | 3.89 µM | 15.3 µM |
